Measurements reported in patent publication US11919895B2, “GPR183 antagonists for the treatment of pain” (Saint Louis University, priority 2019, dated 2024).
pEC50, pIC50: −log10 of the molar value. “Also recorded” adds a separate entry of the source. Read-outs that look alike come from different tables or passages of the source. Each block holds one compound with its values, some of them ahead of it.

Columns and labels:
GPR183 [1] = target: T1, GPR183 (Homo sapiens, UniProt P32249); assay: Calcium mobilization in HL-60 cells after siRNA knock-down of GPR183; assay type: cell-based; design: host or cells: HL-60 (human leukemia) cells; details: HL-60 cells treated with siRNA, FIG. 12E
Method: Serial dilutions (5×) of compounds were prepared in 50:1 HBSS/HEPES.HL-60 cells (1×10^7) were incubated in 50:1 HBSS/HEPES containing 5 μM indo-1-AM (Thermo Fischer Scientific; Waltham. MA) and 0.05% pluronic acid for 0.5 hours at room temperature. Cells were centrifuged and washed with 50:1 HBSS/HEPES and resuspended in buffer. Cells were loaded onto a black 96-well Greiner Bio-One (Thermo Fischer Scientific; Waltham, MA) clear-bottom plate at 100,000 cells/well for a 5× dilution. For agonism assays, cells were immediately incubated for 15 minutes at 37° C. inside a FlexStation 3 Multimode Plate Reader (Molecular Devices; Sunnyvale, CA). Following the 15 minute incubation period, 5× of the compound was added and fluorescence was read for 150 seconds at 37° C. This method was utilized to determine the EC80 value of 7α,25·OHC (EC80=200 nM). For antagonism assays, before the addition of agonist, 5× of the antagonist was added and incubated for 15 minutes at 37° C. inside a FlexStation3. After allowing 15 minutes of equilibration, the determined EC80 of 7α,25-OHC (200 nM) was added, and fluorescence was read for 150 secs at 37° C. Calcium mobilization was determined ratiometrically using λex 350 nm and λem 405/490 nm. […]
siRNA was purchased from Santa Cruz Biotechnology (Dallas, TX). HL-60 cells were centrifuged and counted with a hemocytometer to obtain 2.5×10^6 cells. […]
Target sequence in this assay (P32249 whole entry): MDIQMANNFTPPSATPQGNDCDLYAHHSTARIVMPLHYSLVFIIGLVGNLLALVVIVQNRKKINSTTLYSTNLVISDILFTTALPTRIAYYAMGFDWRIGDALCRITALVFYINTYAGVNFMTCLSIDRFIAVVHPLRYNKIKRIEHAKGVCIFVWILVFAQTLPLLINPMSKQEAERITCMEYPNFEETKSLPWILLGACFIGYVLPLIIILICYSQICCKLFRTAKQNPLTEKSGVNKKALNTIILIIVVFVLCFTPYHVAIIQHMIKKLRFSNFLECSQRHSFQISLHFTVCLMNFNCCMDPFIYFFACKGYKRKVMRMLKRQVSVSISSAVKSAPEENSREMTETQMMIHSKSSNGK

GPR183 [2] = target: T1, GPR183; assay: Calcium mobilization agonism assay in HL-60 cells; assay type: cell-based; design: host or cells: HL-60 (human leukemia) cells; details: for EC80: calcium mobilization
Method: The Human leukemia (HL)-60 cells (American Type Culture Collection; Manassas, VA) were cultivated in RPMI 1640 media containing 10% heat-inactivated fetal bovine serum (FBS), 1% penicillin, and 1% GlutaMax. Cells were passaged every 3 days and maintained at a cell concentration below 1×10^6 to prevent differentiation.
Serial dilutions (5×) of compounds were prepared in 50:1 HBSS/HEPES.HL-60 cells (1×10^7) were incubated in 50:1 HBSS/HEPES containing 5 μM indo-1-AM (Thermo Fischer Scientific; Waltham. MA) and 0.05% pluronic acid for 0.5 hours at room temperature. Cells were centrifuged and washed with 50:1 HBSS/HEPES and resuspended in buffer. Cells were loaded onto a black 96-well Greiner Bio-One (Thermo Fischer Scientific; Waltham, MA) clear-bottom plate at 100,000 cells/well for a 5× dilution. For agonism assays, cells were immediately incubated for 15 minutes at 37° C. inside a FlexStation 3 Multimode Plate Reader (Molecular Devices; Sunnyvale, CA). Following the 15 minute incubation period, 5× of the compound was added and fluorescence was read for 150 seconds at 37° C. This method was utilized to determine the EC80 value of 7α,25·OHC (EC80=200 nM). For antagonism assays, before the addition of agonist, 5× of the antagonist was added and incubated for 15 minutes at 37° C. inside a FlexStation3. After allowing 15 minutes of equilibration, the determined EC80 of 7α,25-OHC (200 nM) was added, and fluorescence was read for 150 secs at 37° C. Calcium mobilization was determined ratiometrically using λex 350 nm and λem 405/490 nm. Dose-response data were normalized to a 0.5% DMSO vehicle control and the maximum response. From the normalized data, non-linear regression curves were then generated to calculate the appropriate EC50 and IC50 values. Each compound was run in triplicate (n=3).
Target sequence in this assay (P32249 whole entry): as above

[3] = tested on: GPR183 signaling in the spinal cord; assay: Example 2: mechano-allodynia induced by intrathecal GPR183 agonist; assay type: in vivo, mice
Method: (§1) α,25-dihydroxycholesterol (7α,25-OHC) was purchased from Avanti Polar Lipids (Alabaster, AL) and dissolved in DMSO as a 2 mM stock. For injections 7α,25-OHC was diluted in saline. […] For intrathecal injections, NIBR189 was diluted in saline. Fluoronated 7α,25-OHC analog (SLUPP-1492) was synthesized as described previously (Deng et al., 2016) (detailed methods below and continued in Supplemental methods) and prepared as a 10 mM stock in DMSO. For injections SLUPP-1492 was diluted in saline. SAE compounds were purchased from Enamine (Monmouth Jet., NJ), all compounds were purified via normal phase chromatography and had purities of ≥95%. 100 mM Stock solutions of the SAE compounds were prepared in DMSO. For intrathecal injections, SAE compounds were diluted in saline. Acute intrathecal (i.th.) injections of compounds were performed as described previously (Lu and Schmidtko, 2013), all compounds were administered intrathecally in a total volume of 5-10 μL.
(§2) Mechano-allodynia was measured as previously described (Yosten et al., 2020) using calibrated von Frey filaments (Stoelting; range in mice: 0.07-2.00 g; in rats: 2-26 g) using the Dixon up-and-down method (Dixon, 1991). Mechano-allodynia was defined as a significant (p<0.05) reduction in mechanical paw withdrawal threshold [PWT (g)] compared to baseline forces (before treatment).

[4] = tested on: GPR183 signaling in the spinal cord; assay: Example 2: cold allodynia induced by intrathecal GPR183 agonist (acetone test); assay type: in vivo, mice
Method: as §1, with “Acute intrathecal (i.th.) injections of compounds were performed as described previously (Lu and Schmidtko, 2013), all compounds were administered intrathecally in a total volume of 5-10 μL.” left out
Cold allodynia was measured as previously described using the acetone test (Xing et al., 2007; Yosten et al., 2020). Briefly, a small drop of acetone was applied to the hind paw of the animal using a flattened polyethylene tube and a syringe and the response to the cold stimulus was scored (0, no response; 1, brisk withdrawal or flick of the paw; 2. repeated flicking of the paw; 3. repeated flicking and licking of the paw). […] When mechanical and cold allodynia were measured on the same animal, mechano-allodynia was measured first with at least 15 minutes before testing cold allodynia.

GPR183 [5] = assay: Example 1: mechano-allodynia induced by i.th. GPR183 agonist; assay type: in vivo, rodents
[6] = Ardecky et al., 2010; cited from earlier work
GPR183 [7] = target: T1, GPR183; details: Benned-Jensen et al., 2013; read-out: IC50, GPR183 antagonist; cited from earlier work
Target sequence in this assay (P32249 whole entry, species assumed): as the sequence (P32249 whole entry) above

[8] = Ardecky et al., 2010; cited from earlier work; remark: listed apart in the source
[9] = tested on: CCI-induced neuropathic pain; assay: Example 1: intrathecal injection in CCI-induced neuropathic pain; assay type: in vivo, rodents; details: for effect on behaviors on the contralateral side: intrathecal injection (5 μl), CCI; for reversal of CCI-induced neuropathic pain behaviors (allodynia) ipsilateral to injury: intrathecal injection at time of peak neuropathic pain (day 7)
[10] = tested on: CCI-induced mechano-allodynia; assay: Example 2: CCI-induced mechano-allodynia, intrathecal injection (von Frey); assay type: in vivo, mice
Method: as §1
CCI of the left sciatic nerve of mice and rats was performed under general anesthesia as previously described (Yosten et al., 2020). Briefly, animals were anesthetized with 2% isoflurane/O2, the left thigh was shaved and disinfected with Dermachlor solution. A small incision (1-1.5 cm) was made in the middle of the lateral aspect of the left thigh to expose the sciatic nerve. The nerve was loosely ligated around the diameter at 3 distinct sites (1 mm apart) using silk sutures (6.0, mice; 4.0, rats). The surgical site was closed with a skin clip and disinfected and treated with topical lidocaine (2%). Sham animals underwent the same procedure without nerve ligation. Peak allodynia developed by D7-D10 following CCI surgery.
as §2

GPR183 [11] = target: T1, GPR183; assay: Calcium mobilization antagonism assay (7α,25-OHC-induced) in HL-60 cells; assay type: cell-based; design: host or cells: HL-60 (human leukemia) cells; details: 7α,25-OHC at EC80
Target sequence in this assay (P32249 whole entry): as above
Method: Serial dilutions (5×) of compounds were prepared in 50:1 HBSS/HEPES.HL-60 cells (1×10^7) were incubated in 50:1 HBSS/HEPES containing 5 μM indo-1-AM (Thermo Fischer Scientific; Waltham. MA) and 0.05% pluronic acid for 0.5 hours at room temperature. Cells were centrifuged and washed with 50:1 HBSS/HEPES and resuspended in buffer. Cells were loaded onto a black 96-well Greiner Bio-One (Thermo Fischer Scientific; Waltham, MA) clear-bottom plate at 100,000 cells/well for a 5× dilution. […] For antagonism assays, before the addition of agonist, 5× of the antagonist was added and incubated for 15 minutes at 37° C. inside a FlexStation3. After allowing 15 minutes of equilibration, the determined EC80 of 7α,25-OHC (200 nM) was added, and fluorescence was read for 150 secs at 37° C. Calcium mobilization was determined ratiometrically using λex 350 nm and λem 405/490 nm. Dose-response data were normalized to a 0.5% DMSO vehicle control and the maximum response. […]

[12] = acute i.th. on D7 post-surgery, male and female mice, SAE-1 800 nM, SAE-10 1.4 μM, SAE-14 2.9 μM

SMILES: C[C@H](CCCC(C)(C)O)[C@H]1CC[C@H]2[C@@H]3[C@H](O)C=C4C[C@@H](O)CC[C@]4(C)[C@H]3CC[C@]12C [7α,25-OHC, 7α,25-dihydroxycholesterol]
7α,25-OHC-induced calcium mobilization with GPR183-specific siRNA (GPR183 [1]): abolished | pEC50 (GPR183 [2]): 7.37 | calcium response in HL-60 cells that express GPR183 (GPR183 [2]; FIG. 1): very prominent calcium response | EC80 (GPR183 [2]; HL-60 cells): 209 nM | EC80 (GPR183 [2]; HL-60 cells, listed as 7α,25·OHC): 200 nM | HillSlope (best-fit value) (GPR183 [2]; log(agonist) vs. normalized response, variable slope, HL-60 cells): 0.8624 | induction of mechano-allodynia ([3]; acute i.th., 7α,25-OHC 24, 72, 240 nM, SLUPP-1492 615 nM, male and female mice): induced a dose and time-dependent mechano-allodynia | ED50, induction of mechano-allodynia ([3]; i.th. injection, mice, FIG. 14A): 74 nM | induction of cold-allodynia ([4]; i.th., 7α,25-OHC 240 nM, SLUPP-1492 615 nM, mice): induced time-dependent development of cold-allodynia | ED50, induction of mechano-allodynia (GPR183 [5]; i.th. injection, n=6/dose, 3 doses): 0.031 ng

SMILES: O=C(/C=C/c1ccc(Cl)cc1)N1CCC2(CC1)CN(Cc1ccc(Cl)c(Cl)c1)C(=O)O2 [GSK682753A]
microsomal stability [6]: poor | pIC50 (GPR183 [7]): 6.70 | plasma stability [8]: poor

SMILES: COc1ccc(C(=O)N2CCN(C(=O)/C=C/c3ccc(Br)cc3)CC2)cc1 [NIBR189]
effect on behaviors on the contralateral side [9]: No effects on behaviors on the contralateral side | reversal of CCI-induced neuropathic pain behaviors (allodynia) ipsilateral to injury [9]: reversal of CCI-induced neuropathic pain behaviors ipsilateral to injury in a time- and dose-dependent manner | reversal of CCI-induced mechano-allodynia ([10]; acute i.th. 0.7, 2.3, 23 μM on D7 post CCI, male mice): failed to reverse mechano-allodynia; also recorded: did not reverse

SMILES: COc1cc(C(C)NC(=O)Cc2c(C)nc(C)[nH]c2=O)cc(OC)c1OC (stereo not drawn) [SAE-1]
effect on behaviors on the contralateral side [9]: No effects on behaviors on the contralateral side | reversal of CCI-induced neuropathic pain behaviors (allodynia) ipsilateral to injury [9]: reversal of CCI-induced neuropathic pain behaviors ipsilateral to injury in a time- and dose-dependent manner | reversal of CCI-induced mechano-allodynia [10, 12]: reversed CCI-induced mechanical allodynia in a time-dependent manner

SMILES: COc1cc2c(cc1OC)CN(C(=O)NOCc1ccccc1)CC2 [SAE-10]
reversal of CCI-induced mechano-allodynia [10, 12]: reversed CCI-induced mechanical allodynia in a time-dependent manner

pIC50 (GPR183 [11]): 7.55
SMILES: O=C(CCc1ccc(F)c(F)c1)Nc1cc(F)cc(N2CCOCC2)c1 [SAE-14]
prevention of mechano-allodynia induced by 7α,25-OHC ([3]; i.th. pre-treatment 0.3, 1, 3 μM, 7α,25-OHC 480 nM, male and female mice): blocked these effects of 7α,25-OHC in a dose-dependent manner; also recorded: dose-dependently prevented | reversal of CCI-induced neuropathic pain behaviors (allodynia) ipsilateral to injury [9]: reversed allodynia in a time-dependent manner | observable adverse side effects ([9]; intrathecal injection, rodents): no observable adverse side effects | prevention of cold-allodynia induced by 7α,25-OHC ([4]; i.th. pre-treatment 3 μM, 7α,25-OHC 480 nM, male and female mice): blocked these effects of 7α,25-OHC in a dose-dependent manner; also recorded: dose-dependently prevented | reversal of CCI-induced mechano-allodynia [10, 12]: reversed CCI-induced mechanical allodynia in a time-dependent manner | blockade of agonist-induced allodynia (GPR183 [5]; i.th. delivery, rodents): blocked
